Data taken from paper PMC4546618, “Casitas B-Lineage Lymphoma RING Domain Inhibitors Protect Mice against High-Fat Diet-Induced Obesity and Insulin Resistance” (PLoS ONE, 2015).
Read-outs that look alike come from different tables or passages of the source. Where a SMILES comes first, the peptide text is derived from it. [ ]: non-standard residue; d: D form. Pro(trans-4-F) = O=C(O)[C@@H]1C[C@@H](F)CN1; Phe(3-F) = N[C@@H](Cc1cccc(F)c1)C(=O)O; Phe(4-Me) = Cc1ccc(C[C@H](N)C(=O)O)cc1; Aze = O=C(O)[C@@H]1CCN1

Legend:
mice fed a high-fat diet [1] = assay: Glucose tolerance test after 12 weeks of treatment on high-fat diet; type: in vivo; details: overnight fasted mice, 2 g/kg glucose i.p., after 12 weeks daily i.p. 5 mg/kg on high-fat diet
Experimental: (§1) All experiments were approved by the institutional Animal Care and Use Committee (Chengdu Medical College, China). All experiments were carried out in 10-week-old male mice maintained on the C57BL/6 background. All the animals were kept on a 12-h light/dark cycle with free access to food and water.
(§2) Animals (n = 90) were randomly assigned to one of the nine groups (Table 1). Animals were fed ad libitum with a high-fat diet (60% of caloric intake from fat (70% saturated fat), 20% from carbohydrates, and 20% from protein) before experiments and for another 12 weeks during the experiments. Food intake was measured manually on a daily basis. Eight groups of animals were treated with indicated peptides with a daily i.p. injection at 5 mg/kg and one group of animals were treated with vehicle.
After receiving 12 weeks of treatment as described above, glucose tolerance tests were performed in overnight fasted mice. Each mouse received a 2 g/kg glucose through i.p. Blood samples were obtained from the tail tip at 0, 30, 60, 90, and 120 min. Insulin concentrations were measured using mouse insulin Elisa kits (ChrystalChem) using mouse standards. Glucose levels were measured using a glucometer (Roche).

mice fed a high-fat diet [2] = assay: Indirect energy expenditure and physical activity measurement; type: in vivo; details: after 12 weeks daily i.p. 5 mg/kg on high-fat diet; for Oxygen consumption VO2: vehicle 4.15 ± 0.55; for Ambulatory day activity / Ambulatory night activity: photobeam break counts; for Ambulatory day activity: vehicle 2,069 ± 705; for Ambulatory night activity: vehicle 6,289 ± 1,216
Experimental: as §1, §2
After receiving 12 weeks of treatment as described above, rates of oxygen consumption (VO2) was measured using a four-chamber indirect calorimeter (Langguan, China, air flow of 0.5 l/min). A total of 2-hour measurement for each animal was conducted at 15-minuate intervals under room temperature (22°C). Ambulatory activity was estimated by counting the number of photobeam breaks in a three-sensor chamber instrument (Rui Pharm, China), and the cumulative ambulatory activity counts were recorded every hour. A total of 12 h-day time and 12 h-night activity were recorded for each animal.

mice fed a high-fat diet [3] = assay: High-fat diet-induced obesity: body weight, food intake, body composition, adipocyte volume; type: in vivo; details: daily i.p. 5 mg/kg; for percentage of perigonadal fat mass / adipocyte volume: 12 weeks; for percentage of perigonadal fat mass: NMR, vehicle 8 ± 0.8%; for adipocyte volume: adipocytes from epididymal fat pad, vehicle 510 ± 42 pL
Experimental: as §1, §2
Body composition was measured using nuclear magnetic resonance (NMR) technology at Chengdu College core facility. Epididymal fat pads were excised and adipocytes were isolated. Cells were then fixed using 2% OsO4 in PBS overnight at 37°C [2].

mice = assay: Acute toxicity in mice; type: in vivo; details: up to 15 mg/kg i.p.; for signs of acute toxicity: 72 hours; for death of animals: another 14 days following the initial examination; for H&E staining of livers, spleens and kidneys: end of experiment
Experimental: as §1
The control group (n = 10) received vehicle only. Eight groups (10 mice each) were treated with increasing doses of either peptide 1, 3, 10, 34, 2, 60, 49, and 51 up to 15 mg/kg by i.p. Number of death, sedation, spontaneous motor activity, alertness, ptosis, dyspnea, convulsion, diarrhea, urination, postural reflex, piloerection, nociception, grooming, vocalization, rearing, climbing and aggression were observed every 12 hours for 72 h. Animals were maintained for another 14 days after the initial examination. We planned to sacrifice the animals if they show severe signs of pain or distress, a body weight loss in excess of 15% of its body weight, or a deterioration of the body condition score to BC2(-) or below. However, none of the animals qualified for the mentioned the symptoms. No animals died during the whole study. At the end of the experiment, animals were euthanized by CO2 asphyxiation followed by cervical dislocation, the livers, spleens and kidneys were collected and formalin-fixed paraffin-embedded for H&E staining.

Cbl (RING) protein = target: T1, Cbl (RING) protein (Homo sapiens, UniProt P22681); assay: Fluorescence polarization (FP) assay, competition with FITC-βA-PFKPP-NH2 probe; type: binding; details: probe FITC-βA-PFKPP-NH2 100 nmol/L, Cbl (RING) protein 3 μmol/L, PBS pH 7.4
T1 construct: including the linker and RING domain (codon 358–457); GST (Glutathione S-Transferase); made in house
T1 sequence (P22681 358-457): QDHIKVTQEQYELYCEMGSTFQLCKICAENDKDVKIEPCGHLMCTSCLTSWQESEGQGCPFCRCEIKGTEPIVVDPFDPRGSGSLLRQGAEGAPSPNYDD
Experimental: Peptides and peptide mimetics were purchased from MitenChem (China) with a purity ≥ 98%. Concentrations values of reconstituted peptides were determined by amino acid analysis at the protein core facility (Chengdu Medical College). The recombinant Cbl protein was produced by the Chengdu Medical College Protein Core Facility and was described previously. The c-Cbl (RING) protein, including the linker and RING domain (codon 358–457), was tagged with Glutathione S-Transferase (GST) and purified with GSH-Sepharose (Shanghai Biopharma).
The FP assay was developed and validated previously. Briefly, fluorescein-labeled probe (FITC-βA-PFKPP-NH2, 100 nmol/L) and Cbl (RING) protein (3 μmol/L) were mixed and diluted to the final concentration using 0.01% Triton X-100 in PBS (pH = 7.4). Then, 19 μl of this master mix was loaded to each reaction well. The peptides or peptide mimetics were then loaded to the designated wells (1 μl, 10 μmol/L– 0.078 μmol/L, half-fold dilutions). The total fluorescence and polarization values were measured at an excitation wavelength of 485 nm and an emission wavelength of 538 nm using a ZS-2 plate reader. The data was fitted, and the ΔmP, Kd, and Ki values were estimated, using SigmaPlot 11.0.

[4] = Pharmacokinetic studies, plasma concentration after i.p. injection; type: in vivo; details: mice, i.p. 4 mg/kg; for Cmax: male, C57BL/6, mouse, plasma, ip, read-out: maximum concentration in plasma
Experimental: as §1
Peptides (1, 3, 10, 34, 2, 60, 49, and 51) were dissolved in sterile aqueous 5% dextrose and administered to mice by i.p. injection (4 mg/kg). Blood samples were collected from the tail tip at 0, 0.5, 1, 6, 12, 18, 24 and 48 hours. Plasma samples were harvested by centrifugation and stored at -80°C until assayed. Peptide concentrations in plasma were determined by Reversed-Phase High-Performance Liquid Chromatography (RP-HPLC) with electrospray ionization mass spectrometric ([…]) detection. Samples were assayed with a series of 8 calibration standards of peptide in plasma at concentrations ranging from 50 to 6000 μg/L. Peptide concentrations were determined by comparing to the standards.

Ki (Cbl (RING) protein) [µM]	Molecule	blood insulin levels compared to the vehicle group (mice fed a high-fat diet [1])	glucose tolerance compared to the vehicle group (mice fed a high-fat diet [1])	Oxygen consumption VO2 (mice fed a high-fat diet [2]) [mL/g/h]	Ambulatory day activity (mice fed a high-fat diet [2])	Ambulatory night activity (mice fed a high-fat diet [2])	body weight gain vs vehicle, parental and negative control peptide groups (mice fed a high-fat diet [3]; 12-week feeding period)	percentage of perigonadal fat mass (mice fed a high-fat diet [3]) [%]	adipocyte volume (mice fed a high-fat diet [3]) [pL]	signs of acute toxicity (mice)	death of animals (mice)	H&E staining of livers, spleens and kidneys (mice)	Cmax ([4]; observed in 60 min) [ng/mL]	plasma concentrations compared to the parental peptides 1 and 2 ([4]; at each time point after 1 hour)	Cmax ([4]; observed in 30 min) [ng/mL]
> 250	CC(=O)N1CC[C@H]1C(=O)N[C@@H](Cc1cccc(F)c1)C(=O)N[C@@H](CCCCN)C(=O)N1CCC[C@H]1C(=O)N1CCC[C@H]1C(N)=O [Peptide 33, Ac-(q) (h)KPP-NH2] (Ac-[Aze][Phe(3-F)]KPP-NH2)	–	–	–	–	–	–	–	–	–	–	–	–	–	–
5.4 ± 2.2	CC(=O)N1CCC[C@H]1C(=O)N[C@@H](Cc1ccc(C)cc1)C(=O)N[C@@H](CCCCN)C(=O)N1CCC[C@H]1C(=O)N1CCC[C@H]1C(N)=O [Peptide 8, Ac-P(f)KPP-NH2] (Ac-P[Phe(4-Me)]KPP-NH2)	–	–	–	–	–	–	–	–	–	–	–	–	–	–
179 ± 10.2	CC(=O)N[C@@H](CCCCN)C(=O)N1C[C@H](F)C[C@H]1C(=O)N[C@@H](C)C(=O)N[C@@H](C)C(=O)N[C@@H](CCCCN)C(N)=O [Peptide 57, Ac-K(t)AAK-NH2] (Ac-K[Pro(trans-4-F)]AAK-NH2)	–	–	–	–	–	–	–	–	–	–	–	–	–	–
3.5 ± 0.4	CC(=O)N1CCC[C@H]1C(=O)N[C@@H](Cc1cccc(F)c1)C(=O)N[C@@H](CCCCN)C(=O)N1CCC[C@@H]1C(=O)N1CCC[C@H]1C(N)=O [Peptide 24, Ac-P(h)K(o)P-NH2] (Ac-P[Phe(3-F)]K[dP]P-NH2)	–	–	–	–	–	–	–	–	–	–	–	–	–	–

Molecule	Ki (Cbl (RING) protein) [µM]	blood insulin levels compared to the vehicle group (mice fed a high-fat diet [1])	glucose tolerance compared to the vehicle group (mice fed a high-fat diet [1])	Oxygen consumption VO2 (mice fed a high-fat diet [2]) [mL/g/h]	Ambulatory day activity (mice fed a high-fat diet [2])	Ambulatory night activity (mice fed a high-fat diet [2])	body weight gain vs vehicle, parental and negative control peptide groups (mice fed a high-fat diet [3]; 12-week feeding period)	percentage of perigonadal fat mass (mice fed a high-fat diet [3]) [%]	adipocyte volume (mice fed a high-fat diet [3]) [pL]	signs of acute toxicity (mice)	death of animals (mice)	H&E staining of livers, spleens and kidneys (mice)	Cmax ([4]; observed in 60 min) [ng/mL]	plasma concentrations compared to the parental peptides 1 and 2 ([4]; at each time point after 1 hour)	Cmax ([4]; observed in 30 min) [ng/mL]
CC(=O)N[C@@H](CCCCN)C(=O)N1C[C@H](F)C[C@H]1C(=O)N[C@@H](C)C(=O)N[C@H](C(=O)N[C@@H](CCCCN)C(N)=O)[C@@H](C)O [Peptide 51, Ac-K(t)ATK-NH2] (Ac-K[Pro(trans-4-F)]ATK-NH2)	3.8 ± 1.1	significant reduction in blood insulin levels	better glucose tolerance	5.99 ± 0.95	4,953 ± 1,014 per 12 h	19,251 ± 3,058 per 12 h	significant differences in body weight gain	4.0 ± 0.8	250 ± 40	did not show vital signs of acute toxicity	None of the animals died	does not show any sign of injuries	4620	greater plasma concentrations	–
Ac-PFKPP-NH2 [Peptide 1, Ac-PFKPP-NH2]	7.2 ± 0.5	–	not statistically significant	3.95 ± 0.22	2,152 ± 865 per 12 h	5,941 ± 1,355 per 12 h	–	6.2 ± 0.7	430 ± 35	did not show vital signs of acute toxicity	None of the animals died	does not show any sign of injuries	–	–	3080
Ac-KPATK-NH2 [Peptide 2, Ac-KPATK-NH2]	4.7 ± 1.2	–	–	4.22 ± 0.42	2,342 ±1,002 per 12 h	6,721 ± 1,032 per 12 h	–	6.7 ± 0.5	440 ± 58	did not show vital signs of acute toxicity	None of the animals died	does not show any sign of injuries	–	–	3370
